Reference: ChEMBL document CHEMBL6177955, “Design, synthesis and biological evaluation of Golgi-targeting anion transporters as inducers of Golgiphagy and apoptosis in cancer cells” (Eur J Med Chem, 2025)
Activity calls are given as the source filed them. The calls are words filed in the database; no cut-off is given here.

Assays:
Lipid bilayer = assay: Vesicular anionophoric activity in large unilamellar vesicle membrane derived from egg-yolk L-alpha-phosphatidylcholine assessed as induction of relative efflux of chloride ions measured up to 300 seconds by using chloride-selective electrode
HepG2 [1] = assay: Induction of chloride ion influx in human HepG2 cells assessed as increase in intracellular chloride anions at 5 to 20 uM measured after 12 hrs incubation by chloride-sensitive dye MQAE-based CLSM imaging analysis; format: functional, cell-based; details: dose 5-20 µM
HepG2 [2] = assay: Induction of chloride ion influx in human HepG2 cells assessed as effect on lysosomal chloride anions at 5 to 20 uM measured after 12 hrs incubation by chloride-sensitive dye MQAE-MP based CLSM imaging analysis; format: functional, cell-based; details: dose 5-20 µM
HepG2 [3] = assay: Suppression of Golgi structural and functional protein expression in human HepG2 cells assessed as decrease in GRASP55 protein expression at 5 to 20 uM measured after 48 hrs incubation by Western blot analysis; format: cell-based; details: dose 5-20 µM
HepG2 [4] = assay: Induction of Golgi apparatus disruption in human HepG2 cells at 5 to 10 uM measured after 24 hrs by TEM imaging analysis; format: functional, cell-based; details: dose 5-10 µM
HepG2 [5] = assay: Induction of autophagosome formation in human HepG2 cells assessed as green fluorescence in mitochondria by measuring pearson co-localization at 10 uM measured after 12 hrs incubation by mCherry-LC3B assay; format: functional
HepG2 [6] = assay: Induction of autophagosome formation in human HepG2 cells assessed as green fluorescence in lysosomes by measuring pearson co-localization at 10 uM measured after 12 hrs incubation by mCherry-LC3B assay; format: functional
HepG2 [7] = assay: Induction of apoptosis in human HepG2 cells assessed as viable cells at 5 uM measured after 24 hrs incubation by Propidium iodide/Annexin V-FITC analysis (reference value: 90.2%); format: functional; details: read-out: Activity
HepG2 [8] = assay: Induction of apoptosis in human HepG2 cells assessed as early apoptotic cells at 5 uM measured after 24 hrs incubation by Propidium iodide/Annexin V-FITC analysis (reference value: 2.90%); format: functional
HepG2 [9] = assay: Induction of apoptosis in human HepG2 cells assessed as necrotic cells at 5 uM measured after 24 hrs incubation by Propidium iodide/Annexin V-FITC analysis (reference value: 1.14%); format: functional
HepG2 [10] = assay: Induction of apoptosis in human HepG2 cells assessed as viable cells at 10 uM measured after 24 hrs incubation by Propidium iodide/Annexin V-FITC analysis (reference value: 90.2%); format: functional; details: read-out: Activity
HepG2 [11] = assay: Induction of apoptosis in human HepG2 cells assessed as viable cells at 20 uM measured after 24 hrs incubation by Propidium iodide/Annexin V-FITC analysis (reference value: 90.2%); format: functional; details: read-out: Activity
HepG2 [12] = assay: Induction of apoptosis in human HepG2 cells assessed as early apoptotic cells at 20 uM measured after 24 hrs incubation by Propidium iodide/Annexin V-FITC analysis (reference value: 2.90%); format: functional
HepG2 [13] = assay: Induction of apoptosis in human HepG2 cells assessed as late apoptotic cells at 20 uM measured after 24 hrs incubation by Propidium iodide/Annexin V-FITC analysis (reference value: 5.71%); format: functional
HepG2 [14] = assay: Induction of apoptosis in human HepG2 cells assessed as necrotic cells at 20 uM measured after 24 hrs incubation by Propidium iodide/Annexin V-FITC analysis (reference value: 1.14%); format: functional
HepG2 [15] = assay: Cell cycle arrest in human HepG2 cells assessed as accumulation of cells at G2/M phase at 10 uM measured after 24 hrs incubation by flow cytometric analysis; format: functional
HepG2 [16] = assay: Cell cycle arrest in human HepG2 cells assessed as accumulation of cells at G2/M phase at 20 uM measured after 24 hrs incubation by flow cytometric analysis; format: functional
HepG2 [17] = assay: Antitumor activity against human HepG2 cells xenografted mouse model assessed as reduction in tumor growth inhibition at 5 mg/kg, ip administered once every 2 days for 21 days relative to control; format: functional; details: HepG2, 504 h, time 21 day, read-out: TGI
[18] = Toxicity in mouse xenografted with human HepG2 cells assessed as histopathological changes in heart at 5 to 10 mg/kg, ip administered once every 2 days for 21 days by H and E staining based analysis; format: organism-based; details: in vivo, 504 h, dose 5-10 mg/kg, time 21 day
HepG2 [19] = assay: Antitumor activity against human HepG2 cells xenografted mouse model assessed as reduction GRASP55 expression in tumor tissue at 5 to 10 mg/kg, ip administered once every 2 days for 21 days; format: functional, organism-based; details: dose 5-10 mg/kg, time 21.0 day
[20] = Toxicity in mouse xenografted with human HepG2 cells assessed as histopathological changes in kidney at 5 to 10 mg/kg, ip administered once every 2 days for 21 days by H and E staining based analysis; format: organism-based; details: in vivo, 504 h, dose 5-10 mg/kg, time 21 day
[21] = Toxicity in mouse xenografted with human HepG2 cells assessed as alanine aminotransferase (ALT) in serum at 5 to 10 mg/kg, ip administered once every 2 days for 21 days; format: organism-based; details: in vivo, 504 h, dose 5-10 mg/kg, time 21 day
[22] = Toxicity in mouse xenografted with human HepG2 cells assessed as blood urea nitrogen (BUN) at 5 to 10 mg/kg, ip administered once every 2 days for 21 days; format: organism-based; details: in vivo, 504 h, dose 5-10 mg/kg, time 21 day
[23] = Toxicity in mouse xenografted with human HepG2 cells assessed as lactate dehydrogenase (LDH) at 5 to 10 mg/kg, ip administered once every 2 days for 21 days; format: organism-based; details: in vivo, 504 h, dose 5-10 mg/kg, time 21 day

**Q.** Which EC50 (Lipid bilayer) does the source give for NS(=O)(=O)c1ccc(NC(=O)CCCCCNc2c(Nc3cc(C(F)(F)F)cc(C(F)(F)F)c3)c(=O)c2=O)cc1 here?
**A.** Its EC50 is 1.53 mol%.

**Q.** What about the Activity (HepG2 [1]) of the same molecule?
**A.** The Activity was “Active”.

**Q.** And the Activity (HepG2 [2])?
**A.** The Activity was “inactive”.

**Q.** What about the Activity (HepG2 [3]) of the same molecule?
**A.** The Activity was “Active”.

**Q.** And the Activity (HepG2 [4])?
**A.** The Activity was “Active”.

**Q.** What about the Activity (HepG2 [5]) of the same molecule?
**A.** Its Activity is 0.23.

**Q.** And the Activity (HepG2 [6])?
**A.** Its Activity is 0.58.

**Q.** And the viability at 5 µM (HepG2 [7])?
**A.** The viability at 5 µM was 73.5%.

**Q.** What about the Activity (HepG2 [8]) of the same molecule?
**A.** The Activity was 12%.

**Q.** And the Activity (HepG2 [9])?
**A.** Its Activity is 1.64%.

**Q.** What about the viability at 10 µM (HepG2 [10]) of the same molecule?
**A.** Its viability at 10 µM is 50%.

**Q.** What about the viability at 20 µM (HepG2 [11]) of the same molecule?
**A.** Its viability at 20 µM is 22.1%.

**Q.** And the Activity (HepG2 [12])?
**A.** The Activity was 34.2%.

**Q.** What about the Activity (HepG2 [13]) of the same molecule?
**A.** Its Activity is 36.5%.

**Q.** And the Activity (HepG2 [14])?
**A.** The Activity was 7.19%.

**Q.** And the Activity (HepG2 [15])?
**A.** The Activity was 17.16%.

**Q.** What about the Activity (HepG2 [16]) of the same molecule?
**A.** Its Activity is 44.07%.

**Q.** And the inhibition in vivo at 5 mg/kg (HepG2 [17])?
**A.** Its inhibition in vivo at 5 mg/kg is 62%.

**Q.** What about the Activity [18] of the same molecule?
**A.** The Activity was “Non-toxic”.

**Q.** What about the Activity (HepG2 [19]) of the same molecule?
**A.** Its Activity is “Active”.

**Q.** And the Activity [20]?
**A.** Its Activity is “Non-toxic”.

**Q.** And the Activity [21]?
**A.** The Activity was “Non-toxic”.

**Q.** What about the Activity [22] of the same molecule?
**A.** Its Activity is “Non-toxic”.

**Q.** And the Activity [23]?
**A.** Its Activity is “Non-toxic”.
